Measured values: patent US20250042911A1, “NOVEL BENZOPYRAN DERIVATIVE AND USE THEREOF” (SPARK BIOPHARMA, INC, priority 2021, published 2025)

Test system: human M2 macrophages
Experiment: Inhibition of human M2 macrophage activity, hCCL22 in culture supernatant by ELISA
Assay type: cell-based
Details: hCCL22 secretion, THP-1 derived M2-like macrophages, compound present during 72 hours of differentiation
Experimental: To obtain human M2 macrophages, human monocytes (THP-1 monocyte, CD4 expression) were stabilized in a 96-well plate for 24 hours and then incubated in culture media containing 100 ng/mL phorbal 12-myristate-13-acetate (PMA; Sigma, P8139) for 24 hours to differentiate into M0 macrophages (macrophage-like phenotype). It was confirmed that differentiated M0 macrophages had reduced CD4 expression and expressed CD11b. M0 macrophages in the plate well were washed once with culture media and incubated in culture media containing 25 ng/mL hIL-4 (Peprotech, 200-04-50) and 25 ng/mL hIL-13 (Peprotech, 200-13-50) for 72 hours to differentiate into M2-like macrophages. Test compounds were diluted by concentration in M2 differentiation media and treated simultaneously during a differentiation period of 72 hours. The inhibitory effect of the test compounds on M2 macrophages was determined by measuring hCCL22 in the medium culture supernatant cultured for 72 hours using an ELISA assay (R&D system, DMD00). The results of the activity measurements are represented in Table 3 (EC50), Table 4 ([…] inhibitory activity at 5 μM) and Table 5 (hCCL22 inhibitory activity at 10 μM).

Row | Compound | EC50
1 | CC(=O)c1ccc(-n2c(=O)n3n(c2=O)C2C(=CC3)C(C)(C)Oc3c2cc(Cl)c(NC(C)C)c3Cl)cc1 (centres unmarked) [Example 37, 2-(4-acetylphenyl)-9,11-dichloro-10-(isopropylamino)-7,7-dimethyl-5,12b-dihydro-1H,7H-chromeno[4,3-c][1,2,4]triazolo[1,2-a]pyridazine-1,3(2H)-dione] | 14.7 µM
2 | CC(=O)c1ccc(-n2c(=O)n3n(c2=O)C2C(=CC3)C(C)(C)Oc3cc(-c4cc(C)nn4C)ccc32)cc1 (centres unmarked) [Example 38, 2-(4-acetylphenyl)-10-(1,3-dimethyl-1H-pyrazol-5-yl)-7,7-dimethyl-5,12b-dihydro-1H,7H-chromeno[4,3-c][1,2,4]triazolo[1,2-a]pyridazine-1,3(2H)-dione] | 31.6 µM
3 | CC(=O)c1ccc(-n2c(=O)n3n(c2=O)C2C(=CC3)C(C)(C)Oc3cc(-c4nc(C)sc4C)ccc32)cc1 (centres unmarked) [Example 39, 2-(4-acetylphenyl)-10-(2,5-dimethylthiazol-4-yl)-7,7-dimethyl-5,12b-dihydro-1H,7H-chromeno[4,3-c][1,2,4]triazolo[1,2-a]pyridazine-1,3(2H)-dione] | 73.1 µM
4 | CCn1nc(C)c(-c2ccc3c(c2)OC(C)(C)C2=CCn4c(=O)n(-c5ccc(C(C)=O)cc5)c(=O)n4C23)c1C (centres unmarked) [Example 40, 2-(4-acetylphenyl)-10-(1-ethyl-3,5-dimethyl-1H-pyrazol-4-yl)-7,7-dimethyl-5,12b-dihydro-1H,7H-chromeno[4,3-c][1,2,4]triazolo[1,2-a]pyridazine-1,3(2H)-dione] | 53.8 µM
5 | CC(=O)c1ccc(-n2c(=O)n3n(c2=O)C2C(=CC3)C(C)(C)Oc3cc(-c4cccnc4)ccc32)cc1 (centres unmarked) [Example 42, 2-(4-acetylphenyl)-7,7-dimethyl-10-(pyridin-3-yl)-5,12b-dihydro-1H,7H-chromeno[4,3-c][1,2,4]triazolo[1,2-a]pyridazine-1,3(2H)-dione] | 31.2 µM
6 | CC(=O)c1ccc(-n2c(=O)n3n(c2=O)C2C(=CC3)C(C)(C)Oc3cc(-c4ccncc4)ccc32)cc1 (centres unmarked) [Example 43, 2-(4-acetylphenyl)-7,7-dimethyl-10-(pyridin-4-yl)-5,12b-dihydro-1H,7H-chromeno[4,3-c][1,2,4]triazolo[1,2-a]pyridazine-1,3(2H)-dione] | 19.2 µM
7 | CC(=O)c1ccc(-n2c(=O)n3n(c2=O)C2C(=CC3)C(C)(C)Oc3cc(N(C)C(C)C)ccc32)cc1 (centres unmarked) [Example 45, 2-(4-acetylphenyl)-10-(isopropyl(methyl)amino)-7,7-dimethyl-5,12b-dihydro-1H,7H-chromeno[4,3-c][1,2,4]triazolo[1,2-a]pyridazine-1,3(2H)-dione] | 9.1 µM
8 | CC(=O)c1ccc(-n2c(=O)n3n(c2=O)C2C(=CC3)C(C)(C)Oc3cc(N(C(C)C)C(C)C)ccc32)cc1 (centres unmarked) [Example 47, 2-(4-acetylphenyl)-10-(diisopropylamino)-7,7-dimethyl-5,12b-dihydro-1H,7H-chromeno[4,3-c][1,2,4]triazolo[1,2-a]pyridazine-1,3(2H)-dione] | 8.1 µM

The remaining lines, values ahead:

Row | EC50 | Compound
9 | 9.7 µM | CN1CCN(c2ccc3c(c2)OC(C)(C)C2=CCn4c(=O)n(-c5ccc(C(C)(C)C)cc5)c(=O)n4C23)CC1 (centres unmarked) [Example 48, 2-(4-(tert-butyl)phenyl)-7,7-dimethyl-10-(4-methylpiperazin-1-yl)-5,12b-dihydro-1H,7H-chromeno[4,3-c][1,2,4]triazolo[1,2-a]pyridazine-1,3(2H)-dione]
10 | 12.1 µM | CN1CCN(c2ccc3c(c2)OC(C)(C)C2=CCn4c(=O)n(-c5ccc(C(F)(F)F)cc5)c(=O)n4C23)CC1 (centres unmarked) [Example 49, 7,7-dimethyl-10-(4-methylpyrerazin-1-yl)-2-(4-(trifluoromethyl)phenyl)-5,12b-dihydro-1H,7H-chromeno[4,3-c][1,2,4]triazolo[1,2-a]pyridazine-1,3(2H)-dione]
11 | 25.6 µM | CN1CCN(c2ccc3c(c2)OC(C)(C)C2=CCn4c(=O)n(-c5ccc(F)cc5)c(=O)n4C23)CC1 (centres unmarked) [Example 50, 2-(4-fluorophenyl)-7,7-dimethyl-10-(4-methylpiperazin-1-yl)-5,12b-dihydro-1H,7H-chromeno[4,3-c][1,2,4]triazolo[1,2-a]pyridazine-1,3(2H)-dione]
